According to patent publication US20250302746A1, “METHOD FOR PRODUCING EMULSIFIED COMPOSITION” (Daicel Corporation, priority 2022, published 2025):

Key:
[1] = Test Example 4: transmittance of emulsified composition (660 nm, optical path 10 mm); format: physicochemical; details: balance glycerol, heated 120° C. 3 min, 15000 rpm
Protocol: (§1) The transmittance of the emulsified composition produced in this example was determined as a transmittance for light having a wave length of 660 nm at a measurement optical path length of 10 mm using an ultraviolet-visible spectrophotometer UV-1800 (manufactured by Shimadzu Corporation). In the following test, a case where the transmittance was less than 40% was indicated by “C”, a case where the transmittance was 40% or greater and less than 80% was indicated by “B”, and a case where the transmittance was 80% or greater was indicated by “A”.
(§2) A solution having a composition of parts by weight shown in Table 4 (a solution in which the balance is glycerol and the total is 100 parts by weight) was prepared and heated at 120° C. for 3 minutes using a block heater. During being heated, the solution was mixed using a polytron homogenizer at 15000 rpm. Thereafter, the solution was allowed to stand at room temperature (about 25° C.) and the temperature of the solution was lowered to room temperature (about 25° C.) to produce an emulsified composition, and the transmittance was measured.

[2] = Test Example 1: transmittance of emulsified composition (660 nm, optical path 10 mm); format: physicochemical; details: balance glycerol, 10000 rpm
Protocol: as §1
as §2, with “1” for “4”, “a heating temperature shown in Table 1” for “120° C.”, “10000” for “15000”

[3] = Test Example 2: transmittance of emulsified composition (660 nm, optical path 10 mm); format: physicochemical; details: balance glycerol, heated 120° C. 3 min, 15000 rpm
Protocol: as §1
as §2, with “2” for “4”

[4] = Test Example 3: transmittance of emulsified composition (660 nm, optical path 10 mm); format: physicochemical; details: balance glycerol, 15000 rpm
Protocol: as §1
as §2, with “3” for “4”, “a heating temperature shown in Table 3” for “120° C.”

[5] = cited from earlier work
[6] = urolithin 0.5, RYOTO polyglyester L-7D (HLB 17.0) 50 parts by weight
[7] = Urolithin A 0.1, Decaglyn 1-LF (HLB 15.5) 5 parts by weight, heated 100° C. 3 min
[8] = Urolithin A 0.1, Decaglyn 1-LF (HLB 15.5) 5 parts by weight, heated 120° C. 3 min
[9] = Urolithin A 0.1, RYOTO polyglyester L-7D (HLB 17.0) 5 parts by weight, heated 100° C. 3 min
[10] = Urolithin A 0.1, RYOTO polyglyester L-7D (HLB 17.0) 5 parts by weight, heated 120° C. 3 min
[11] = urolithin 0.1, RYOTO polyglyester L-7D (HLB 17.0) 50 parts by weight

**Q.** Which Transmittance results [1, 6] does the source give for O=c1oc2cc(O)ccc2c2cc(O)ccc12 [Isourolithin A, isourolithin A] here?
**A.** B (the transmittance was 40% or greater and less than 80%)

**Q.** For O=c1oc2cc(O)ccc2c2ccc(O)cc12 [Urolithin A, urolithin A], which Transmittance results ([2]; Urolithin A 0.1, Decaglyn 1-LF (HLB 15.5) 5 parts by weight, heated 80° C. 3 min) is on record?
**A.** C (the transmittance was less than 40%)

**Q.** And the Transmittance results [2, 7]?
**A.** C (the transmittance was less than 40%)

**Q.** What about the Transmittance results [2, 8] of the same molecule?
**A.** B (the transmittance was 40% or greater and less than 80%)

**Q.** What about the Transmittance results ([2]; Urolithin A 0.1, Decaglyn 1-MF (HLB 14.0) 5 parts by weight, heated 80° C. 3 min) of the same molecule?
**A.** C (the transmittance was less than 40%)

**Q.** What about the Transmittance results ([2]; Urolithin A 0.1, Decaglyn 1-MF (HLB 14.0) 5 parts by weight, heated 100° C. 3 min) of the same molecule?
**A.** C (the transmittance was less than 40%)

**Q.** And the Transmittance results ([2]; Urolithin A 0.1, Decaglyn 1-MF (HLB 14.0) 5 parts by weight, heated 120° C. 3 min)?
**A.** B (the transmittance was 40% or greater and less than 80%)

**Q.** And the Transmittance results ([2]; Urolithin A 0.1, Decaglyn 1-OVF (HLB 12.0) 5 parts by weight, heated 80° C. 3 min)?
**A.** C (the transmittance was less than 40%)

**Q.** And the Transmittance results ([2]; Urolithin A 0.1, Decaglyn 1-OVF (HLB 12.0) 5 parts by weight, heated 100° C. 3 min)?
**A.** C (the transmittance was less than 40%)

**Q.** And the Transmittance results ([2]; Urolithin A 0.1, Decaglyn 1-OVF (HLB 12.0) 5 parts by weight, heated 120° C. 3 min)?
**A.** B (the transmittance was 40% or greater and less than 80%)

**Q.** And the Transmittance results ([2]; Urolithin A 0.1, RYOTO polyglyester L-7D (HLB 17.0) 5 parts by weight, heated 80° C. 3 min)?
**A.** C (the transmittance was less than 40%)

**Q.** And the Transmittance results [2, 9]?
**A.** C (the transmittance was less than 40%)

**Q.** What about the Transmittance results [2, 10] of the same molecule?
**A.** A (the transmittance was 80% or greater)

**Q.** What about the Transmittance results ([2]; Urolithin A 0.1, RYOTO polyglyester O-15D (HLB 13.0) 5 parts by weight, heated 80° C. 3 min) of the same molecule?
**A.** C (the transmittance was less than 40%)

**Q.** And the Transmittance results ([2]; Urolithin A 0.1, RYOTO polyglyester O-15D (HLB 13.0) 5 parts by weight, heated 100° C. 3 min)?
**A.** C (the transmittance was less than 40%)

**Q.** What about the Transmittance results ([2]; Urolithin A 0.1, RYOTO polyglyester O-15D (HLB 13.0) 5 parts by weight, heated 120° C. 3 min) of the same molecule?
**A.** B (the transmittance was 40% or greater and less than 80%)

**Q.** And the Transmittance results ([2]; Urolithin A 0.1, RYOTO polyglyester O-50D (HLB 7) 5 parts by weight, heated 80° C. 3 min)?
**A.** C (the transmittance was less than 40%)

**Q.** And the Transmittance results ([2]; Urolithin A 0.1, RYOTO polyglyester O-50D (HLB 7) 5 parts by weight, heated 100° C. 3 min)?
**A.** C (the transmittance was less than 40%)

**Q.** What about the Transmittance results ([2]; Urolithin A 0.1, RYOTO polyglyester O-50D (HLB 7) 5 parts by weight, heated 120° C. 3 min) of the same molecule?
**A.** C (the transmittance was less than 40%)

**Q.** And the Transmittance results ([2]; Urolithin A 0.1, Sugar ester S-1170 (HLB about 11) 5 parts by weight, heated 80° C. 3 min)?
**A.** C (the transmittance was less than 40%)

**Q.** And the Transmittance results ([2]; Urolithin A 0.1, Sugar ester S-1170 (HLB about 11) 5 parts by weight, heated 100° C. 3 min)?
**A.** C (the transmittance was less than 40%)

**Q.** What about the Transmittance results ([2]; Urolithin A 0.1, Sugar ester S-1170 (HLB about 11) 5 parts by weight, heated 120° C. 3 min) of the same molecule?
**A.** C (the transmittance was less than 40%)

**Q.** And the Transmittance results ([3]; Urolithin A 0.2, Decaglyn 1-LF (HLB 15.5) 5 parts by weight)?
**A.** C (the transmittance was less than 40%)

**Q.** What about the Transmittance results ([3]; Urolithin A 0.2, Decaglyn 1-LF (HLB 15.5) 10 parts by weight) of the same molecule?
**A.** B (the transmittance was 40% or greater and less than 80%)

**Q.** And the Transmittance results ([3]; Urolithin A 0.2, Decaglyn 1-LF (HLB 15.5) 50 parts by weight)?
**A.** A (the transmittance was 80% or greater)

**Q.** And the Transmittance results ([3]; Urolithin A 0.2, RYOTO polyglyester L-7D (HLB 17.0) 5 parts by weight)?
**A.** C (the transmittance was less than 40%)

**Q.** And the Transmittance results ([3]; Urolithin A 0.2, RYOTO polyglyester L-7D (HLB 17.0) 10 parts by weight)?
**A.** B (the transmittance was 40% or greater and less than 80%)

**Q.** And the Transmittance results ([3]; Urolithin A 0.2, RYOTO polyglyester L-7D (HLB 17.0) 50 parts by weight)?
**A.** A (the transmittance was 80% or greater)

**Q.** What about the Transmittance results ([3]; Urolithin A 0.5, RYOTO polyglyester L-7D (HLB 17.0) 50 parts by weight) of the same molecule?
**A.** A (the transmittance was 80% or greater)

**Q.** What about the Transmittance results [4, 7] of the same molecule?
**A.** C (the transmittance was less than 40%)

**Q.** What about the Transmittance results ([4]; Urolithin A 0.1, Decaglyn 1-LF (HLB 15.5) 5 parts by weight, heated 105° C. 3 min) of the same molecule?
**A.** C (the transmittance was less than 40%)

**Q.** What about the Transmittance results [4, 8] of the same molecule?
**A.** B (the transmittance was 40% or greater and less than 80%)

**Q.** What about the Transmittance results ([4]; Urolithin A 0.1, Decaglyn 1-LF (HLB 15.5) 50 parts by weight, heated 100° C. 3 min) of the same molecule?
**A.** C (the transmittance was less than 40%)

**Q.** And the Transmittance results ([4]; Urolithin A 0.1, Decaglyn 1-LF (HLB 15.5) 50 parts by weight, heated 105° C. 3 min)?
**A.** A (the transmittance was 80% or greater)

**Q.** What about the Transmittance results ([4]; Urolithin A 0.1, Decaglyn 1-LF (HLB 15.5) 50 parts by weight, heated 120° C. 3 min) of the same molecule?
**A.** A (the transmittance was 80% or greater)

**Q.** What about the Transmittance results [4, 9] of the same molecule?
**A.** C (the transmittance was less than 40%)

**Q.** What about the Transmittance results ([4]; Urolithin A 0.1, RYOTO polyglyester L-7D (HLB 17.0) 5 parts by weight, heated 105° C. 3 min) of the same molecule?
**A.** C (the transmittance was less than 40%)

**Q.** What about the Transmittance results [4, 10] of the same molecule?
**A.** A (the transmittance was 80% or greater)

**Q.** And the Transmittance results ([4]; Urolithin A 0.1, RYOTO polyglyester L-7D (HLB 17.0) 50 parts by weight, heated 100° C. 3 min)?
**A.** C (the transmittance was less than 40%)

**Q.** And the Transmittance results ([4]; Urolithin A 0.1, RYOTO polyglyester L-7D (HLB 17.0) 50 parts by weight, heated 105° C. 3 min)?
**A.** A (the transmittance was 80% or greater)

**Q.** What about the Transmittance results ([4]; Urolithin A 0.1, RYOTO polyglyester L-7D (HLB 17.0) 50 parts by weight, heated 120° C. 3 min) of the same molecule?
**A.** A (the transmittance was 80% or greater)

**Q.** And the oil solubility ([5]; background statement)?
**A.** low

**Q.** What about the “solubility in high-temperature vegetable oil or the like” value ([5]; background statement) of the same molecule?
**A.** not soluble

**Q.** And the solubility in water ([5]; water at 30° C. (Patent Document 4))?
**A.** about 3.5 mg/L

**Q.** Which Transmittance results ([1]; urolithin 1.0, RYOTO polyglyester L-7D (HLB 17.0) 50 parts by weight) does the source give for O=c1oc2cc(O)ccc2c2ccccc12 [Urolithin B, urolithin B] here?
**A.** A (the transmittance was 80% or greater)

**Q.** For O=c1oc2cc(O)ccc2c2cc(O)c(O)cc12 [Urolithin C, urolithin C], which Transmittance results [1, 11] is on record?
**A.** A (the transmittance was 80% or greater)

**Q.** For O=c1oc2c(O)c(O)ccc2c2c(O)c(O)c(O)cc12 [Urolithin M5, urolithin M5], which Transmittance results [1, 11] is on record?
**A.** A (the transmittance was 80% or greater)

**Q.** For O=c1oc2cc(O)ccc2c2c(O)c(O)c(O)cc12 [Urolithin M6, urolithin M6], which Transmittance results [1, 6] is on record?
**A.** A (the transmittance was 80% or greater)

**Q.** Which Transmittance results [1, 11] does the source give for O=c1oc2cc(O)ccc2c2c(O)cc(O)cc12 [Urolithin M7, urolithin M7] here?
**A.** A (the transmittance was 80% or greater)

**Q.** For urolithin M8, which Transmittance results [1, 6] is on record?
**A.** A (the transmittance was 80% or greater)
